Source: patent US20230218519A1, “FLUID GEL COMPOSITIONS” (The University of Birmingham, priority 2020, published 2023)
Read-outs that look alike come from different tables or passages of the source.

Assays:
[1] = tested on: primary ovine chondrocytes; experiment: Metabolic activity assay (PrestoBlue); assay type: cell-based
Procedure: All cell work was undertaken on primary ovine chondrocytes. Cells were first expanded, then seeded into wells 24 hrs prior to the application of the fluid gels. Once treatments were added, the cells were cultured for a further 3 days before testing for both metabolic activity and cell viability. In the presence of functionalised particles, suspension wells were used to promote adhesion to the gelled particles, away from the plastic. Metabolic activity assay was undertaken using a PrestoBlue™ assay kit (Invitrogen). In brief, cells were washed with Dulbecco's PBS, and 1 mL of PrestoBlue™ supplemented medium (10%) was added to each well and incubated for 4 hrs. 50 μL of supernatant from each well was transferred to one well of a 96 well plate and fluorescence was measured using a Tecan Spark (Tecan Group Ltd, UK) plate reader with excitation/emission wavelengths set at 550/620 nm.

[2] = Release assay from PEG-DA fluid gel (trans-well, UV/Vis); assay type: physicochemical; conditions: 3% v/v PEG-DA fluid gel (Example 5.3, 500 rpm), into PBS at 37° C., 5 hrs
Procedure: • Active amounts: […] • Standard concentrations of active in PBS were prepared. • Standards were pipetted into a quartz cuvette (1 mm pathlength). • UV/Vis spectroscopy was used to measure absorbance between 200 and 700 nm wavelength. • Curves were plotted and used to determine standard curves which were used to determine concentrations. • 0.5 ml PBS was added to the well of a 24 well plate. • The PBS was incubated at 37° C. to equilibrate. • 0.1 ml of the fluid gel containing active was placed in a trans-well insert. • The trans-well insert was placed into a well containing PBS. • After a given time period the trans-well insert was removed and placed in a fresh well of PBS. • The release media was then removed and analysed using […] spectroscopy. Concentrations were derived from the standard curves and cumulative release plotted as a function of time.

CC(C)(O)C(=O)c1ccc(OCCO)cc1 [Irgacure-2959, 1-[4-(2-Hydroxyethoxy)-phenyl]-2-hydroxy-2-methyl-1-propane-1-one]
metabolic activity, each constituent part of the PEG-DA formulation [1]: slight reduction in cell metabolism, although not statistical

CC(C)Cc1ccc(C(C)C(=O)O)cc1 (stereo not shown) [Ibuprofen, ibuprofen]
release of active agent from fluid gel [2]: able to release

CC(C)(O)C(=O)c1ccccc1 [Omnirad-1173, 2-hydroxy-2-methyl-1-phenylpropanone]
metabolic activity, each constituent part of the PEG-DA formulation ([1]; 3 days culture, PEG-DA not cured, 3.5% & 5%): slight reduction in cell metabolism, although not statistical

dextran
release of active agent from fluid gel [2]: able to release
